# Data taken from PubChem BioAssay AID1918936 (Molecular Pharmacology Branch, DTP, NCI, 2023).
# System: 349418-098-R-PDC complex spheroid viability
# Assay: Anticancer human tumor 349418-098-R-PDC patient-derived lung adenocarcinoma cell line growth inhibition
# Settings: for IC50: curve of first compound; for viability, T/C: stronger effect = lower value
# Source text: Multicellular complex tumor spheroid response to LSD1 Inhibitor Iadademstat in combination with a variety of drugs and investigational agents in selected tumor cell lines
# The current study was undertaken to assess response to LSD1 inhibitors in combination with standard-of-care drugs and investigational agents in solid tumor complex spheroid models as well as in the K-562 leukemia. Complex spheroids include a stromal component modeled by human endothelial cells (HUVEC) and fibroblasts modeled by human mesenchymal stem cells (MSCs). The concentration ranges selected for each drug and investigational agent were based upon clinically achievable concentrations if the clinical Cmax of the agent was known.
# Compounds. The drugs and investigational agents used in this study are listed on Table 1. All of the agents used, including staurosporine (NSC755774) and gemcitabine (NSC613327), were obtained from the Developmental Therapeutics Program, NCI. FDA-approved anticancer drugs are available from the NCI at http://dtp.nci.nih.gov/branches/dscb/oncology_drugset_explanation.html. Drugs and investigational agents were >95% pure by proton nuclear magnetic resonance (NMR) and liquid chromatography/mass spectrometry (LC/MS). Stock solutions were prepared at 400x in DMSO, stored at -70 degrees C, and diluted in fresh medium prior to their use. The final concentration of DMSO in cell culture wells never exceeded 0.25% (v/v). The FDA-approved anticancer drug set is available from the Developmental Therapeutics Program at https://dtp.cancer.gov/organization/dscb/obtaining/available_plates.htm. All drugs and investigational agents were tested over a range starting from a high concentration at or near the clinical Cmax and decreasing in half-log increments. If the clinical Cmax for an agent had not been determined, the highest concentration tested was 10 microM.
# Cell Lines. The patient-derived cancer cell (PDC) lines: 292921-168-R-J2-PDC, K24384-001-R-PDC, and 521955-158-R2-J5-PDC pancreatic carcinomas, 556581-035-R-J1 ovarian carcinoma, 324938-238-R-J1-PDC, 855422-203-R-J1-PDC and 883617-216-R-J1-PDC urothelial bladder carcinomas, 743489-274-T-PDC renal cell carcinoma, 138582-R-J1 Merkel cell tumor, K60290-347-R-J1 and K57222-313-R-J1-PDC glioblastomas, 653999-131-R-J2-PDC, LG0703-F948-PDC, and 349418-098-R-PDC non-small cell lung carcinomas, 885512-296-R-J2-PDC, 171881-019-R-J1-PDC breast carcinomas and 186277-243-T-J2-PDC and 233499-124-R-J2-PDC colon carcinomas were obtained from the NCI Patient-Derived Models Repository (PDMR, https://pdmr.cancer.gov). The established cell lines NCI/ADR-RES (RRID:CVCL_14520 and OVCAR-5 (RRID:CVCL_1628) ovarian carcinomas, 786-O (RRID:CVCL_1051) and A498 (RRID:CVCL_A498) renal cell carcinoma, NCI-H211 (ATCC, cat. CRL-5824; RRID:CVCL_1529), NCI-H196 (ATCC, cat. CRL-5823, RRID:CVCL_1509), SW 1271 (ATCC, cat. CRL-2177, RRID:CVCL_1716) and NCI-H1876 (ATCC, cat. CRL-5902, RRID:CVCL_1503) small cell lung carcinomas, MDA-MB-231 (RRID:CVCL_0062) and MDA-MB-468 (RRID:CVCL_0419)breast carcinomas (10-12). Pooled donor human umbilical vein endothelial cells (HUVEC, Lonza, cat. CC-2519) and human mesenchymal stem cells (hMSC, Lonza, cat. PT-2501) were purchased from Lonza (Walkersville, MD).
# Cell Culture. All cells were maintained in an incubator at 37 degrees C and 5% CO2 with 95% humidity. The PDC lines were cultured according to standard operating procedures established by the NCI PDMR (https://pdmr.cancer.gov). Briefly all PDCs were thawed and cultured in Matrigel-coated flasks prepared with a working solution of 1X Ham's F-12 nutrient mix, without supplementation (Invitrogen, Waltham, MA, cat. 11765054), 100 U/mL penicillin-streptomycin (Invitrogen, cat. 15140122), and 2.5% Matrigel (Corning Inc., Corning, NY, cat. 354248) for the first three passages. […]
# 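Note: spheroids exposed to agents for seven days before readout.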
# 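Throughout, for viability, T/C: 100% = DMSO vehicle control wells.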
compound,measurement,setting,value
CC[C@@]1(O)C(=O)OCc2c1cc1n(c2=O)Cc2cc3c(CN(C)C)c(O)ccc3nc2-1 + NC1CC1c1ccc(-c2cccc(O)c2)cc1,IC50,second compound 0.1 µM,4.97 nM
same,IC50,second compound 0.316 µM,4.86 nM
same,IC50,second compound 1 µM,4.78 nM
same,IC50,second compound 3.16 µM,4.69 nM
same,IC50,second compound 10 µM,3.8 nM
same,"viability, T/C","second compound 0.1 µM, first compound 0.000316 µM",115%
same,"viability, T/C","second compound 0.1 µM, first compound 0.001 µM",108%
same,"viability, T/C","second compound 0.1 µM, first compound 0.00316 µM",74.8%
same,"viability, T/C","second compound 0.1 µM, first compound 0.01 µM",11.4%
same,"viability, T/C","second compound 0.1 µM, first compound 0.0316 µM",5.55%
same,"viability, T/C","second compound 0.1 µM, first compound 0.1 µM",3.01%
same,"viability, T/C","second compound 0.316 µM, first compound 0.000316 µM",120%
same,"viability, T/C","second compound 0.316 µM, first compound 0.001 µM",116%
same,"viability, T/C","second compound 0.316 µM, first compound 0.00316 µM",74%
same,"viability, T/C","second compound 0.316 µM, first compound 0.01 µM",9.75%
same,"viability, T/C","second compound 0.316 µM, first compound 0.0316 µM",4.91%
same,"viability, T/C","second compound 0.316 µM, first compound 0.1 µM",2.78%
same,"viability, T/C","second compound 1 µM, first compound 0.000316 µM",118%
same,"viability, T/C","second compound 1 µM, first compound 0.001 µM",116%
same,"viability, T/C","second compound 1 µM, first compound 0.00316 µM",72.4%
same,"viability, T/C","second compound 1 µM, first compound 0.01 µM",10.1%
same,"viability, T/C","second compound 1 µM, first compound 0.0316 µM",5.15%
same,"viability, T/C","second compound 1 µM, first compound 0.1 µM",2.6%
same,"viability, T/C","second compound 3.16 µM, first compound 0.000316 µM",122%
same,"viability, T/C","second compound 3.16 µM, first compound 0.001 µM",112%
same,"viability, T/C","second compound 3.16 µM, first compound 0.00316 µM",70.8%
same,"viability, T/C","second compound 3.16 µM, first compound 0.01 µM",10.1%
same,"viability, T/C","second compound 3.16 µM, first compound 0.0316 µM",5.39%
same,"viability, T/C","second compound 3.16 µM, first compound 0.1 µM",2.8%
same,"viability, T/C","second compound 10 µM, first compound 0.000316 µM",91.9%
same,"viability, T/C","second compound 10 µM, first compound 0.001 µM",90.1%
same,"viability, T/C","second compound 10 µM, first compound 0.00316 µM",57.8%
same,"viability, T/C","second compound 10 µM, first compound 0.01 µM",8.84%
same,"viability, T/C","second compound 10 µM, first compound 0.0316 µM",5.04%
same,"viability, T/C","second compound 10 µM, first compound 0.1 µM",2.95%
